{
  "source": "patent US20240262845A1",
  "about": "“PYRIDINIUM SALTS, METHODS OF MAKING, AND METHODS OF USE” (UNIVERSITY OF WYOMING, priority 2023, published 2024)",
  "key": {"β2-Microglobulin": {"target": "T1, β2-Microglobulin (Homo sapiens, UniProt P61769)", "T1 construct": "β2-microglobulin (Human Urine ≥98% (SDS-PAGE)); purchased Lee Biosolutions; host or cells: human urine", "T1 sequence (P61769 21-119)": "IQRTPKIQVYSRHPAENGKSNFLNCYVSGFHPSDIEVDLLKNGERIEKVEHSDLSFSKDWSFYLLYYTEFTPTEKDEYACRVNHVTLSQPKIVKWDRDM", "assay": "Photochemical labeling of β2-microglobulin with pyridinium salt (General Procedure B, LC/MS)", "type": "biochemical", "conditions": "trypsin digest", "method": "General Procedure B: Photochemical Irradiation of Peptides and Proteins: To a 2 mL Pyrex LC/MS vial (Thermo model #03-391-39) were sequentially added solutions containing the desired biomolecule, glutathione (GSH), pyridinium salt, and ammonium acetate (NH4OAc). The resulting solution was diluted to a final volume of 500 μL and then sparged using nitrogen for a minimum of 30 minutes prior to irradiation. The actively sparging solution was then placed in an EvoluChem™ PhotoRedOx Box photoreactor that was equipped with a Kessil, PR160 427 nm LED Lamp and was then irradiated (100% lamp intensity) for the designated time at room temperature while maintaining active sparging. The resultant reaction mixture was then analyzed directly by LC/MS. Analysis of labeling outcomes using LC/MS was performed either by extracted ion chromatogram intensities (method A) or by integrating the area under the peaks associated with peptide content (method B). […]\nLabeling of β2-Microglobulin with Pyridinium Salt 2a (β2-Microglobulin-2a Conjugate). […] The reaction mixture was directly analyzed by LC/MS using method A and was estimated to have proceeded with 88% conversion with a >20:1 mono:di labeled ratio and 7% glutathionylation of all unlabeled and labeled protein content. β2-Microglobulin-2a conjugate (retention time (Tr)=3.26-4.70 min). […]"}, "chymotrypsinogen": {"target": "T2, chymotrypsinogen (Bos taurus, UniProt P00766)", "T2 construct": "α-Chymotrypsinogen A from bovine pancreas; purchased Sigma Aldrich; host or cells: bovine pancreas", "assay": "Photochemical labeling of chymotrypsinogen with pyridinium salt (General Procedure B, LC/MS)", "type": "biochemical, bovine", "conditions": "trypsin digest", "method": "General Procedure B: Photochemical Irradiation of Peptides and Proteins: To a 2 mL Pyrex LC/MS vial (Thermo model #03-391-39) were sequentially added solutions containing the desired biomolecule, glutathione (GSH), pyridinium salt, and ammonium acetate (NH4OAc). The resulting solution was diluted to a final volume of 500 μL and then sparged using nitrogen for a minimum of 30 minutes prior to irradiation. The actively sparging solution was then placed in an EvoluChem™ PhotoRedOx Box photoreactor that was equipped with a Kessil, PR160 427 nm LED Lamp and was then irradiated (100% lamp intensity) for the designated time at room temperature while maintaining active sparging. The resultant reaction mixture was then analyzed directly by LC/MS. Analysis of labeling outcomes using LC/MS was performed either by extracted ion chromatogram intensities (method A) or by integrating the area under the peaks associated with peptide content (method B). These values were totaled, and estimated percentages were assigned according to relative intensities of peaks or ion counts.\nLabeling of Chymotrypsinogen with pyridinium salt 2a (Chymotrypsinogen-2a Conjugate). […] The reaction mixture was directly analyzed by LC/MS using method A and was estimated to have proceeded with 90% conversion with a 20.7:8.3:1 mono:di:tri labeled ratio and 4% glutathionylation of all unlabeled and labeled protein content. […]"}},
  "note": "Entries after “also recorded” stand apart in the source; their conditions may differ. Structures can show the parent of a compound that is named as a salt.",
  "data": [
    {"smiles": "COC(=O)N(C)[n+]1c(C)cc(-c2ccc3cc(OC)ccc3c2)cc1C", "note": "[pyridinium salt 2a, 1-((methoxycarbonyl)(methyl)amino)-4-(6-methoxynapthalen-2-yl)-2,6-dimethylpyridin-1-ium tetrafluoroborate]", "values": [
      {"measurement": "Modified Trp", "setting": "β2-Microglobulin", "value": "Trp-60"},
      {"measurement": "Modified Trp", "setting": "chymotrypsinogen", "value": "Trp-215; also recorded: Trp-237"}
    ]}
  ]
}
